Assay results: patent US10065948B2, “Histone deacetylase inhibitors and compositions and methods of use thereof” (CHDI Foundation, Inc., priority 2014, dated 2018)
pIC50: −log10 of the molar value.

What was measured:
[1] = target: Histone Deacetylase 4 (HDAC4) catalytic domain (Homo sapiens (Human), UniProt P56524); experiment: Biochemical HDAC inhibition assay, fluorogenic substrate Boc-Lys(Tfa)-AMC
Method: The potency of compounds is quantified by measuring the Histone Deacetylase 4 (HDAC4) catalytic domain enzymatic activity using the fluorogenic substrate, Boc-Lys(Tfa)-AMC. The substrate is deacetylated to Boc-Lys-AMC by HDAC4. Cleavage by trypsin results in the release of the fluorophore AMC from the deacetylated substrate. The fluorescence of the sample is directly related to the histone deacetylase activity in the sample.
Stocks of 60 μL aliquots of the 10 mM compound in DMSO are prepared and stored at −20° C. From one stock aliquot of each compound to be tested and the reference compound, a 16-point serial dilution is prepared according to Table 1 using a 125 μL 16-channel Matrix multi-channel pipette (Matrix Technologies Ltd).
2 μL (200×) of each diluted solution and each control (full activity: 100% DMSO alone or full inhibition 1 mM) is stamped into V-bottomed polypropylene 384-well compound plates using either the Bravo (384-well head from Agilent) or 12.5 μL 16-channel Matrix multi-channel pipette (Matrix Technologies Ltd). Each well with the 200× compound solution is diluted 1:20 by the addition of 38 μL assay buffer+DMSO (10.5% DMSO, 45 mM Tris-HCl, 123 mM NaCl, 2.4 mM KCl, and 0.9 mM MgCl2 at pH 8.0 and equilibrated to room temperature).
The HDAC4 catalytic domain enzyme is human catalytic domain HDAC4 protein (amino acids 648-1032) with a C-terminal 6× histidine tag, produced by BioFocus. A working solution of enzyme is prepared from a 500 μg/mL stock aliquot of HDAC4 catalytic domain (thawed on ice) diluted to 0.2 μg/mL with assay buffer (50 mM Tris-HCl, 137 mM NaCl, 2.7 mM KCl, and 1 mM MgCl2 at pH 8 and equilibrated to room temperature) just prior to the addition of the enzyme to the assay.
5× (50 μM) substrate is prepared just prior to the addition to the assay. A 1 mM substrate stock is made by diluting a 100 mM Boc-Lys(Tfa)-AMC in DMSO solution 1:100 by adding it drop-wise to assay buffer (equilibrated to room temperature) while vortexing at slow speed to prevent precipitation. The 5× substrate is prepared by diluting the 1 mM substrate solution 1:20 by adding it drop-wise to assay buffer (equilibrated to room temperature) while vortexing at slow speed to prevent precipitation.
3× (30 μM) Developer/Stop Solution is prepared just prior to addition to the plate by diluting a stock solution of 10 mM reference compound 1:333 in 25 mg/mL trypsin (PAA Laboratories Ltd.) equilibrated to room temperature.
5 μL of each solution of 1:20 diluted compound from above is transferred to a clear bottomed, black, 384-well assay plate using the Bravo or the Janus (384-well MDT head from Perkin Elmer). Using a 16-channel Matrix multi-channel pipette, 35 μL of the working solution of HDAC4 catalytic domain enzyme (0.2 μg/mL in assay buffer) is transferred to the assay plate. […] The assay plate is then shaken for two minutes on an orbital shaker at 900 rpm (rotations per minute). Next the plate is incubated for 15 minutes at 37° C. The reaction is stopped by adding 25 μL of 3× (30 μM) developer/stop solution to the assay plates using either the Bravo, Janus or a 16-channel Matrix multi-channel pipette. Assay plates are then shaken for 5 minutes on an orbital shaker at 1200 rpm. Next, the assay plates are incubated at 37° C. for 1 hour in a tissue culture incubator. Finally, the fluorescence is measured (Excitation: 355 nm, Emission: 460 nm) using PerkinElmer EnVision in top read mode.

[2] = tested on: cellular histone deacetylase enzymatic activity in Jurkat E6-1 cells; experiment: Inhibition of cellular HDAC activity, Boc-Lys(Tfa)-AMC substrate (Cell Lys-TFA); assay type: cell-based
Method: The potency of the compounds is quantified by measuring the cellular histone deacetylase enzymatic activity using the fluorogenic substrate, Boc-Lys(Tfa)-AMC. After penetration in Jurkat E6-1 cells, the substrate is deacetylated to Boc-Lys-AMC. After cell lysis and cleavage by trypsin, the fluorophore AMC is released from the deacetylated substrate only. The fluorescence of the sample is directly related to the histone deacetylase activity in the sample.
Jurkat E6.1 cells are cultured according to standard cell culture protocols in Jurkat E6.1 Growth Media (RPMI without phenol red, 10% FBS, 10 mM HEPES, and 1 mM Sodium Pyruvate). Jurkat E6.1 cells are counted using a Coulter Counter and resuspended in Jurkat E6.1 growth media at a concentration of 75,000 cells/35 μL. 35 μL or 75,000 cells is seeded into Greiner microtitre assay plates. The plates are then incubated at 37° C. and 5% CO2 while other assay components are being prepared.
Stocks of 70 μL aliquots of the 10 mM compound in DMSO are prepared and stored at −20° C. From one stock aliquot of each compound to be tested and the reference compound, a 16-point serial dilution is prepared according to Table 1 using a 125 μL 16-channel Matrix multi-channel pipette.
2 μL (200×) of each diluted solution and each control (full activity: 100% DMSO alone or full inhibition 1 mM) is stamped into V-bottom polypropylene 384-well compound plates using either the Bravo, Janus, or 12.5 μL 16-channel Matrix multi-channel pipette. Each well with the 200× compound solution is diluted 1:20 by the addition of 38 μL Jurkat assay buffer+DMSO (9.5% DMSO, RPMI without phenol red, 0.09% FBS, 9 mM Hepes, and 0.9 mM Sodium Pyruvate equilibrated to room temperature)
5× (500 μM) substrate is prepared just prior to the addition to the assay. The 5× substrate is prepared by diluting a 100 mM Boc-Lys(Tfa)-AMC in DMSO solution 1:200 by adding it drop-wise to Jurkat assay medium (RPMI without phenol red, 0.1% FBS, 10 mM Hepes, and 1 mM Sodium Pyruvate equilibrated to 37° C.) while vortexing at slow speed to prevent precipitation.
10 mL of 3× lysis buffer is prepared with 8.8 ml of 3× stock lysis buffer (50 mM Tris-HCl, pH 8.0, 137 mM NaCl, 2.7 mM KCl, 1 mM MgCl2, 1% Nonidet P40 Substitute equilibrated to room temperature) and 1.2 mL of 3 mg/mL Trypsin equilibrated to room temperature.
5 μL of each solution of 1:20 diluted compound from above is transferred to the Greiner microtitre assay plates with 75,000 cells/well using the Bravo. Cells are then incubated for 2 hours at 37° C. and 5% CO2. […] The cells are then incubated for 3 hours at 37° C. and 5% CO2. Next, 25 μL of 3× lysis buffer is added to each well using either the 125 μL 16 channel pipette or the Bravo. The assay plate is then incubated overnight (15-16 hours) at 37° C. and 5% CO2. The following day, the plates are shaken on an orbital shaker for 1 minute at 900 rpm. Finally the top read fluorescence (Excitation: 355 nm, Emission: 460 nm) is measured using PerkinElmer EnVision.

[3] = tested on: cellular histone deacetylase activity (Lys-Ac); experiment: Inhibition of cellular HDAC activity (Cell Lys-Ac); assay type: cell-based; details: Lys-Ac substrate
[4] = Homo sapiens, Jurkat E6.1, Lys-TFA substrate

Histone Deacetylase 4 (HDAC4) catalytic domain, sequence (P56524 648-1032): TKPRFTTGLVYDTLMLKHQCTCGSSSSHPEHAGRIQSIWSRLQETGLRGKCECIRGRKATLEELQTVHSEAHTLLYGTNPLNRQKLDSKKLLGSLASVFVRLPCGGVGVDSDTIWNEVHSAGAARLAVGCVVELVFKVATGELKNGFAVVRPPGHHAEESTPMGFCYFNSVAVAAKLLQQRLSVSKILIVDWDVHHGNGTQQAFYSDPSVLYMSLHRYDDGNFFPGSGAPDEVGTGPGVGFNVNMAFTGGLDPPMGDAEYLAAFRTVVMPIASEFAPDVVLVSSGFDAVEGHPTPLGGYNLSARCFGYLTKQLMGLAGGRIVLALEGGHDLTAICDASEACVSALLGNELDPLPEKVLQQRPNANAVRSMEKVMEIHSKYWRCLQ

Structure (SMILES) | pIC50 [1] | pIC50 [2, 4] | pIC50 [3] | pIC50 ([2]; Lys-TFA substrate)
Cc1cnccc1-n1cc2c(n1)C[C@](C(=O)NO)(c1cccc(F)c1C)C2 [Example 27, (S)-5-(3-fluoro-2-methylphenyl)-N-hydroxy-2-(3-methylpyridin-4-yl)-2,4,5,6-tetrahydrocyclopenta[c]pyrazole-5-carboxamide] | 7.28 | 6.94 | < 4.30 | 
Cc1c(F)cccc1[C@@]1(C(=O)NO)Cc2cnn(-c3ccccc3)c2C1 [Example 30, (R)-5-(3-Fluoro-2-methylphenyl)-N-hydroxy-1-phenyl-1,4,5,6-tetrahydrocyclopenta[c]pyrazole-5-carboxamide] | 6.00 | 5.77 | < 4.30 | 
Cc1c(F)cccc1C1(C(=O)NO)CCc2ncsc2C1 (stereo not drawn) [Example 44, 6-(3-Fluoro-2-methylphenyl)-N-hydroxy-4,5,6,7-tetrahydrobenzo[d]thiazole-6-carboxamide] | 6.00 | 5.82 | < 4.30 | 
Cc1cccc(F)c1-n1ncc2c1C[C@](C(=O)NO)(c1cccc(F)c1C)C2 [Example 15, (S)-5-(3-Fluoro-2-methylphenyl)-1-(2-fluoro-6-methylphenyl)-N-hydroxy-1,4,5,6-tetrahydrocyclopenta[c]pyrazole-5-carboxamide] | 7.72 | 7.49 | < 4.30 | 
Cc1c(F)cccc1C1(C(=O)NO)CCc2nn(CC(F)(F)F)c(C3CC3)c2C1 (stereo not drawn) [Example 39, 3-Cyclopropyl-5-(3-fluoro-2-methylphenyl)-N-hydroxy-2-(2,2,2-trifluoroethyl)-4,5,6,7-tetrahydro-2H-indazole-5-carboxamide] | 5.36 | 5.74 | < 4.30 | 
Cc1cnccc1-n1ncc2c1C[C@](C(=O)NO)(c1cccc(F)c1C)C2 [Example 26, (S)-5-(3-Fluoro-2-methylphenyl)-N-hydroxy-1-(3-methylpyridin-4-yl)-1,4,5,6-tetrahydrocyclopenta[c]pyrazole-5-carboxamide] | 7.24 | 7.15 | < 4.30 | 
Cc1c(F)cccc1C1(C(=O)NO)CCc2nc(C3CC3)sc2C1 (stereo not drawn) [Example 42, 2-Cyclopropyl-6-(3-fluoro-2-methylphenyl)-N-hydroxy-4,5,6,7-tetrahydrobenzo[d]thiazole-6-carboxamide] | 6.11 | 6.49 | < 4.30 | 
Cc1c(F)cccc1C1(C(=O)NO)Cc2nc(-c3cnn(C)c3C)sc2C1 (single isomer, unassigned) [Example 76, E1-(abs)-2-(1,5-Dimethyl-1H-pyrazol-4-yl)-5-(3-fluoro-2-methylphenyl)-N-hydroxy-5,6-dihydro-4H-cyclopenta[d]thiazole-5-carboxamide] | 7.17 |  | < 4.30 | 7.44
Cc1c(F)cccc1[C@]1(C(=O)NO)CCc2nc(-c3ccccc3Cl)ncc21 [Example 49, (R)-2-(2-chlorophenyl)-5-(3-fluoro-2-methylphenyl)-N-hydroxy-6,7-dihydro-5H-cyclopenta[d]pyrimidine-5-carboxamide] | 6.99 | 6.60 | < 4.30 | 
Cc1c(F)cccc1[C@@]1(C(=O)NO)Cc2nc(-c3ccc(F)cn3)sc2C1 [Example 96, (R)-5-(3-Fluoro-2-methylphenyl)-N-hydroxy-2-(5-fluoropyridin-2-yl)-5,6-dihydro-4H-cyclopenta[d]thiazole-5-carboxamide] | 7.29 | 7.22 | < 4.30 | 
Cc1c(F)cccc1[C@]1(C(=O)NO)Cc2cnc(C(F)(F)F)nc2C1 [Example 56, (S)-6-(3-Fluoro-2-methylphenyl)-N-hydroxy-2-(trifluoromethyl)-6,7-dihydro-5H-cyclopenta[d]pyrimidine-6-carboxamide] | 6.06 | 5.74 | < 4.30 | 
O=C(NO)C1(c2ccccc2)CCc2cn(CC(F)(F)F)nc2CC1 (stereo not drawn) [Example 86, N-Hydroxy-6-phenyl-2-(2,2,2-trifluoroethyl)-2,4,5,6,7,8-hexahydrocyclohepta[c]pyrazole-6-carboxamide] | 5.09 | 4.33 | < 4.30 | 
Cc1c(F)cccc1[C@]1(C(=O)NO)CCc2nn(Cc3ccccc3)cc21 [Example 94, (R)-2-Benzyl-4-(3-fluoro-2-methylphenyl)-N-hydroxy-2,4,5,6-tetrahydrocyclopenta[c]pyrazole-4-carboxamide] | 6.09 | 5.56 | < 4.30 | 
Cc1c(F)cccc1[C@]1(C(=O)NO)Cc2nc(-c3ccnn3C)sc2C1 [Example 68, (S)-5-(3-Fluoro-2-methylphenyl)-N-hydroxy-2-(1-methyl-1H-pyrazol-5-yl)-5,6-dihydro-4H-cyclopenta[d]thiazole-5-carboxamide] | 6.62 | 6.92 | < 4.30 | 
Cc1c(F)cccc1C1(C(=O)NO)CCc2cnc(C3CC3)nc2CC1 (stereo not drawn) [Example 83, 2-Cyclopropyl-7-(3-fluoro-2-methylphenyl)-N-hydroxy-6,7,8,9-tetrahydro-5H-cyclohepta[d]pyrimidine-7-carboxamide] | 5.89 | 6.31 | < 4.30 | 
Cc1cccc(-n2ncc3c2C[C@](C(=O)NO)(c2cccc(F)c2C)C3)c1 [Example 24, (S)-5-(3-Fluoro-2-methylphenyl)-N-hydroxy-1-(m-tolyl)-1,4,5,6-tetrahydrocyclopenta[c]pyrazole-5-carboxamide] | 7.55 | 7.19 | < 4.30 | 
